Reference: PMC9121578, “Celastrol mitigates inflammation in sepsis by inhibiting the PKM2-dependent Warburg effect” (Military Medical Research, 2022)

Experiments:
Assay type in all cases: binding
[1] = biological target: T1, PKM2 (pyruvate kinase M2) (Homo sapiens, UniProt P14618); experiment: surface plasmon resonance, CM5 chip, steady-state […]
T1 construct: gene PKM; recombinant, pET28a, E. coli BL21, Ni-NTA purified; full length implied

[2] = biological target: T2, LDHA (lactate dehydrogenase A) (Homo sapiens, UniProt P00338); experiment: as above
T2 construct: recombinant human LDHA obtained from Abcam

HMGB1 B box = biological target: T3, HMGB1 B box (Homo sapiens, UniProt P09429); experiment: UV-visible absorption; competition with Cel-P labelling; conditions: 100 μmol/L Cel; covalent
T3 construct: B box domain (contains Cys106)
T3 sequence (P09429 95-163 limits assumed): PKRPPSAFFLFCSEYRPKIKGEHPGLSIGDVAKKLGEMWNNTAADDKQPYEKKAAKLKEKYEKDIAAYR

[3] = biological target: T4, HMGB1 (high mobility group box 1) (Homo sapiens, UniProt P09429); experiment: surface plasmon resonance, CM5 chip, steady-state […]
T4 construct: recombinant full length, pET-24d, E. coli BL21, Ni-NTA purified; a recombinant human HMGB1 was also bought from Abcam
T4 sequence (P09429 1-215): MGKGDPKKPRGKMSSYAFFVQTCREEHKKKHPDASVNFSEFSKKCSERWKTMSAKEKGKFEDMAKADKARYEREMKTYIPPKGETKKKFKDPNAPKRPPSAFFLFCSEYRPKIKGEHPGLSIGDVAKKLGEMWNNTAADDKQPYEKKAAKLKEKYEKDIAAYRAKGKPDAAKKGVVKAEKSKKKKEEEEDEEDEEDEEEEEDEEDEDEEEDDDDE

[4] = biological target: T1, PKM2 (pyruvate kinase M2); experiment: probe labelling, click chemistry, in-gel fluorescence; conditions: room temperature; PBS; covalent
[5] = biological target: T4, HMGB1 (high mobility group box 1); experiment: as above; conditions: room temperature; PBS; covalent

T1 sequence (P14618 2-531): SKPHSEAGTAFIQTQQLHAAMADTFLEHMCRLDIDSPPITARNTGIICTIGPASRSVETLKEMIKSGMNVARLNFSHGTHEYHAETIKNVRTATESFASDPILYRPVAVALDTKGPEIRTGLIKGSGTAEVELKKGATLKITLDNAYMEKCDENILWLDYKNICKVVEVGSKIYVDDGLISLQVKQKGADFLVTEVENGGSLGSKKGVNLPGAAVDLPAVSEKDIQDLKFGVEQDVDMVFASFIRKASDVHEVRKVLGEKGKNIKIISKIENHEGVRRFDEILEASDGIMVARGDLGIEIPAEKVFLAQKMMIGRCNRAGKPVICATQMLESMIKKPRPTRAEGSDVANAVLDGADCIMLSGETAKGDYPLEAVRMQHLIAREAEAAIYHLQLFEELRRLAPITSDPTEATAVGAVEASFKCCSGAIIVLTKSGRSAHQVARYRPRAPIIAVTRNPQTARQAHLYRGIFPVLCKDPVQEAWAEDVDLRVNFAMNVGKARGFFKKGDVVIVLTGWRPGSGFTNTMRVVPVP

| Structure (SMILES) | Kd [1] | Kd [2] | UV-visible absorption; competition with Cel-P labelling (HMGB1 B box) | Kd [3] | probe labelling, click chemistry, in-gel fluorescence [4] | probe labelling, click chemistry, in-gel fluorescence [5] |
| --- | --- | --- | --- | --- | --- | --- |
| CC1=C(O)C(=O)C=C2C1=CC=C1[C@@]2(C)CC[C@@]2(C)[C@@H]3C[C@](C)(C(=O)O)CC[C@]3(C)CC[C@]12C [Cel, Celastrol] | 635 µM | 562 µM | UV–visible absorption by Cel decreased upon mixing with the B box domain | 4.44 µM | – | – |
| C#CCNC(=O)[C@]1(C)CC[C@]2(C)CC[C@]3(C)C4=CC=C5C(=CC(=O)C(O)=C5C)[C@]4(C)CC[C@@]3(C)[C@@H]2C1 [Cel-P, celastrol-probe] | – | – | – | – | These proteins were labeled with Cel-P in a dose-dependent manner | Cel-P labeled recombinant human HMGB1 (Fig. 6c) |
